# Data as given in PMC6704710, “Preclinical evaluation of 3D185, a novel potent inhibitor of FGFR1/2/3 and CSF-1R, in FGFR-dependent and macrophage-dominant cancer models” (Journal of Experimental & Clinical Cancer Research : CR, 2019).
# Assays:
# Assay in all cases: Eurofins kinase panel
# Assay type in all cases: biochemical
# Settings in all cases: read-out: Inhibition rate (%)
# SGK(h) = molecular target: T1, SGK(h) (Homo sapiens, UniProt O00141)
# T1 construct: purchased Eurofins (KinaseProfiler)
# T1 sequence (O00141 1-431): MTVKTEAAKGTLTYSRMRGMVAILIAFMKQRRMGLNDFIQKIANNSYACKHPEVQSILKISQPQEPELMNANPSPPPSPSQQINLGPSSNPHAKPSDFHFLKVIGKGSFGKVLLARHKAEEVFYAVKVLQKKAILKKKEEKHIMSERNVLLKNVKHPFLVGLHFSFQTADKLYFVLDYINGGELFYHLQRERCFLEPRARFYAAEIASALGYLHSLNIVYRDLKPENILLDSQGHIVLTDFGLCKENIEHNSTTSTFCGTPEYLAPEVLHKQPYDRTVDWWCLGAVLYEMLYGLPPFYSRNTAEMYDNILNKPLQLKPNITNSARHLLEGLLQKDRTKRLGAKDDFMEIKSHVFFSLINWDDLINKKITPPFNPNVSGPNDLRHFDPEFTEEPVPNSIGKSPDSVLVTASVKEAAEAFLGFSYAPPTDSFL
# DYRK1B(h) = molecular target: T2, DYRK1B(h) (Homo sapiens, UniProt Q9Y463)
# T2 construct: purchased Eurofins (KinaseProfiler)
# HPK1(h) = molecular target: T3, HPK1(h) (Homo sapiens, UniProt Q92918)
# T3 construct: purchased Eurofins (KinaseProfiler)
# Tie2(R849W)(h) = molecular target: T4, Tie2(R849W)(h) (Homo sapiens, UniProt Q02763, R849W)
# T4 construct: purchased Eurofins (KinaseProfiler)
# MSK2(h) = molecular target: T5, MSK2(h) (Homo sapiens, UniProt O75676)
# T5 construct: purchased Eurofins (KinaseProfiler)
# DDR1(h) = molecular target: T6, DDR1(h) (Homo sapiens, UniProt Q08345)
# T6 construct: purchased Eurofins (KinaseProfiler)
# PAK2(h) = molecular target: T7, PAK2(h) (Homo sapiens, UniProt Q13177)
# T7 construct: purchased Eurofins (KinaseProfiler)
# ALK4(h) = molecular target: T8, ALK4(h) (Homo sapiens, UniProt P36896)
# T8 construct: purchased Eurofins (KinaseProfiler)
# T8 sequence (P36896 24-505): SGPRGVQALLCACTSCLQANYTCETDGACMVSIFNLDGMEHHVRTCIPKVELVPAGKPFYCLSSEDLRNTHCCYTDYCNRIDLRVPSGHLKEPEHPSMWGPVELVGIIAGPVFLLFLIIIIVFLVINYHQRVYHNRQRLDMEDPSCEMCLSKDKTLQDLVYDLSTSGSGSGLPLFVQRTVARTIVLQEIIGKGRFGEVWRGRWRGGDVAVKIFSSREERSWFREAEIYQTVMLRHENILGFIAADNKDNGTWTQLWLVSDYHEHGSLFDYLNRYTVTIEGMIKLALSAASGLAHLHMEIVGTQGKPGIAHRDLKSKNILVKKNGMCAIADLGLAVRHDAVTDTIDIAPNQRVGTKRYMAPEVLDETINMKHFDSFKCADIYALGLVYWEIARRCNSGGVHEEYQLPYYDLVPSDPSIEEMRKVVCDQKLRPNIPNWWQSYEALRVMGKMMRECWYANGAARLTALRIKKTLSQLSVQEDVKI
# TYK2(h) = molecular target: T9, TYK2(h) (Homo sapiens, UniProt P29597)
# T9 construct: purchased Eurofins (KinaseProfiler)
# DRAK2(h) = molecular target: T10, DRAK2(h) (Homo sapiens, UniProt O94768)
# T10 construct: purchased Eurofins (KinaseProfiler)
# T10 sequence (O94768 1-372): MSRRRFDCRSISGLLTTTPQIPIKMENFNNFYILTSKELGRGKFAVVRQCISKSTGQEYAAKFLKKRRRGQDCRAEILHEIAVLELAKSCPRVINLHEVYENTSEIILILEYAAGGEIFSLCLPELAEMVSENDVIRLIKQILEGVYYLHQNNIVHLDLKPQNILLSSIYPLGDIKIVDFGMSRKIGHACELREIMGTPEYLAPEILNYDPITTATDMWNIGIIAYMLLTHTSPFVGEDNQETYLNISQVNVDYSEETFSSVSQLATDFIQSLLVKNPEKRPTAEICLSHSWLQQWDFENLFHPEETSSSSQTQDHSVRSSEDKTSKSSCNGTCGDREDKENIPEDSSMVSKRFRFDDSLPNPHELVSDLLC
# BRK(h) = molecular target: T11, BRK(h) (Homo sapiens, UniProt Q13882)
# T11 construct: purchased Eurofins (KinaseProfiler)
# T11 sequence (Q13882 whole entry): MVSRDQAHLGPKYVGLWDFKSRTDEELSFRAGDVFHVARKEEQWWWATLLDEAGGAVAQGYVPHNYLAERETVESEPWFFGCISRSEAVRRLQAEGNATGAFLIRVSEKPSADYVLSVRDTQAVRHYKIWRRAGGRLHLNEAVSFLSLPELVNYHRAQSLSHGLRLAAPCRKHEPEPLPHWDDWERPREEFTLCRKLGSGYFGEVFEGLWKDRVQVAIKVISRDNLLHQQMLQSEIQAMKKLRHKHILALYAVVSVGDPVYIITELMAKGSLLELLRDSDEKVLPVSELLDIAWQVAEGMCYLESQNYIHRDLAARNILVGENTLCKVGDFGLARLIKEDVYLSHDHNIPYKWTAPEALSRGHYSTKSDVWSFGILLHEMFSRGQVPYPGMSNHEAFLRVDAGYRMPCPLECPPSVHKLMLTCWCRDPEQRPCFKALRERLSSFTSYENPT
# T5 sequence (O75676 whole entry): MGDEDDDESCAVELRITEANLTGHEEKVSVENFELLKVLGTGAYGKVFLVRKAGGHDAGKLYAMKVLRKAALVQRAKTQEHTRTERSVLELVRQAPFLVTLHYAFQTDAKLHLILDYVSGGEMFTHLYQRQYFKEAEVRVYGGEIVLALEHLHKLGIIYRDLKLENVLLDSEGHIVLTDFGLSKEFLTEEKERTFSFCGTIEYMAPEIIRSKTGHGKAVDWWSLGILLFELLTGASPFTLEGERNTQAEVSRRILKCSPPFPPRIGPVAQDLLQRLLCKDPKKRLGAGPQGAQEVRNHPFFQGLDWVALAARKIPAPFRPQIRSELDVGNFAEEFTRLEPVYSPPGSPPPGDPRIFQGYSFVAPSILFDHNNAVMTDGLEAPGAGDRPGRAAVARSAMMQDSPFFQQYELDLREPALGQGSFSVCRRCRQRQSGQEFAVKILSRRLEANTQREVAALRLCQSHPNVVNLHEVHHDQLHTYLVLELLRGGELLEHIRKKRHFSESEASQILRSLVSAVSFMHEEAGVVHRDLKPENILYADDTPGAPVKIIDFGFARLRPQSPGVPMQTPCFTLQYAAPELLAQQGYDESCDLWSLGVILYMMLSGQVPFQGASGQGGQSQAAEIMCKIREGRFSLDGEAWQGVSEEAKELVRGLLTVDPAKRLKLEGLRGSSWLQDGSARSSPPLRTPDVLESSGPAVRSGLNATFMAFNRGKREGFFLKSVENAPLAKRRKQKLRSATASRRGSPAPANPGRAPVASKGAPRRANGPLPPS
# T7 sequence (Q13177 whole entry): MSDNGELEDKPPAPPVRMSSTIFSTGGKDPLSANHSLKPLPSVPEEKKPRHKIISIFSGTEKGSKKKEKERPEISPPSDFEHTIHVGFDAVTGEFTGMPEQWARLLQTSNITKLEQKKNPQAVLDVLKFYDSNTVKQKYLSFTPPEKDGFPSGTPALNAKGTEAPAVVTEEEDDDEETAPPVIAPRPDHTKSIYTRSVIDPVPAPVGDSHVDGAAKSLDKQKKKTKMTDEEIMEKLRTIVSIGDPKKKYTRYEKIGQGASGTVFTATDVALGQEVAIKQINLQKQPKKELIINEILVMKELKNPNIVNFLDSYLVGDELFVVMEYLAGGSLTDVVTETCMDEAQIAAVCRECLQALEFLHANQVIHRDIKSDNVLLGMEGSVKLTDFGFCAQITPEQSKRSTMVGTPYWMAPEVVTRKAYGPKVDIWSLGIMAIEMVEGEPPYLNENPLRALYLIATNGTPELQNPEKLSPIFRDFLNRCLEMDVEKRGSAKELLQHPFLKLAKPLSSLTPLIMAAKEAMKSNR
# T6 sequence (Q08345 19-913): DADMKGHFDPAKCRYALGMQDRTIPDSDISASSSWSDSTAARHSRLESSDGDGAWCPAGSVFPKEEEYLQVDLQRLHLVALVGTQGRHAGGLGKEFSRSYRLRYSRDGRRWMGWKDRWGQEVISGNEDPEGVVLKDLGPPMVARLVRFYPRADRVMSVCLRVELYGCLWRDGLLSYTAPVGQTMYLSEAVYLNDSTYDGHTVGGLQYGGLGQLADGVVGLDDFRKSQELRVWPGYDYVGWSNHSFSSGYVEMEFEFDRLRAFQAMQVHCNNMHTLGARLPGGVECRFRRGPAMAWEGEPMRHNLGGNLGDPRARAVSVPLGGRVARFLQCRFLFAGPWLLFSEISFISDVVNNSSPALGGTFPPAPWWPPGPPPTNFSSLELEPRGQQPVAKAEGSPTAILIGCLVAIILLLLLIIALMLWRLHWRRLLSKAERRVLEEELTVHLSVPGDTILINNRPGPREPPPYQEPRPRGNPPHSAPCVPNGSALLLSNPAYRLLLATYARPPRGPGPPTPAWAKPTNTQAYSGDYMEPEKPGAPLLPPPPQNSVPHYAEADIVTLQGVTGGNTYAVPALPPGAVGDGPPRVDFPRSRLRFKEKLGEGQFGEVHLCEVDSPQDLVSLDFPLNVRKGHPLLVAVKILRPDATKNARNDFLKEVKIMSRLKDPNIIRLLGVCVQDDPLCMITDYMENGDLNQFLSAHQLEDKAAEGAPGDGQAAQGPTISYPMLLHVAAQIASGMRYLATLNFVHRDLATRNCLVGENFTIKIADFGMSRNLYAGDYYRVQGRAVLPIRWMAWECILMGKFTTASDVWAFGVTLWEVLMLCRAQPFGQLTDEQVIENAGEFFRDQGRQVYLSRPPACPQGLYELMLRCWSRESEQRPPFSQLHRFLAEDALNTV
# T3 sequence (Q92918 whole entry): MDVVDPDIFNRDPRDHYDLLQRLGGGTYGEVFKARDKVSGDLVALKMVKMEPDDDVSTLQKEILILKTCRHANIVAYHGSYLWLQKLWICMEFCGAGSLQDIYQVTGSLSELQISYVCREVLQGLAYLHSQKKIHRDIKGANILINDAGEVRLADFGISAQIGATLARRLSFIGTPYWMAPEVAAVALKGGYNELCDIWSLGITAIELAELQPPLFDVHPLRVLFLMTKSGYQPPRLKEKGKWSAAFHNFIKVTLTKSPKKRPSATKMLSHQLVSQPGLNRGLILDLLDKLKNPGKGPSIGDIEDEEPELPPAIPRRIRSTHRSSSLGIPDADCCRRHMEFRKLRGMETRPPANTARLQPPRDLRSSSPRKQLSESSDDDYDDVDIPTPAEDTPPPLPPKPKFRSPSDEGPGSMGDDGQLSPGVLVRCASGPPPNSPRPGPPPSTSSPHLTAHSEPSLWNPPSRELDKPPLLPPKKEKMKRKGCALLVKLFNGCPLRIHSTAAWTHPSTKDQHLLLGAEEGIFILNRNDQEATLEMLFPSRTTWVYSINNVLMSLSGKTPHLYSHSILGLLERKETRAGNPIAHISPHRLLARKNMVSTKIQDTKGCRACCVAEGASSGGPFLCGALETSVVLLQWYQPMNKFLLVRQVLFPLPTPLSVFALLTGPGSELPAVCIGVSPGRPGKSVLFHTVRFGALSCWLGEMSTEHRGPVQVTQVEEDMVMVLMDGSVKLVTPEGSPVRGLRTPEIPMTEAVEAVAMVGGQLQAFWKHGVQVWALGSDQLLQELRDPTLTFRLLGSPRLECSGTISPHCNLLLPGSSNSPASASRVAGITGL
# T9 sequence (P29597 whole entry): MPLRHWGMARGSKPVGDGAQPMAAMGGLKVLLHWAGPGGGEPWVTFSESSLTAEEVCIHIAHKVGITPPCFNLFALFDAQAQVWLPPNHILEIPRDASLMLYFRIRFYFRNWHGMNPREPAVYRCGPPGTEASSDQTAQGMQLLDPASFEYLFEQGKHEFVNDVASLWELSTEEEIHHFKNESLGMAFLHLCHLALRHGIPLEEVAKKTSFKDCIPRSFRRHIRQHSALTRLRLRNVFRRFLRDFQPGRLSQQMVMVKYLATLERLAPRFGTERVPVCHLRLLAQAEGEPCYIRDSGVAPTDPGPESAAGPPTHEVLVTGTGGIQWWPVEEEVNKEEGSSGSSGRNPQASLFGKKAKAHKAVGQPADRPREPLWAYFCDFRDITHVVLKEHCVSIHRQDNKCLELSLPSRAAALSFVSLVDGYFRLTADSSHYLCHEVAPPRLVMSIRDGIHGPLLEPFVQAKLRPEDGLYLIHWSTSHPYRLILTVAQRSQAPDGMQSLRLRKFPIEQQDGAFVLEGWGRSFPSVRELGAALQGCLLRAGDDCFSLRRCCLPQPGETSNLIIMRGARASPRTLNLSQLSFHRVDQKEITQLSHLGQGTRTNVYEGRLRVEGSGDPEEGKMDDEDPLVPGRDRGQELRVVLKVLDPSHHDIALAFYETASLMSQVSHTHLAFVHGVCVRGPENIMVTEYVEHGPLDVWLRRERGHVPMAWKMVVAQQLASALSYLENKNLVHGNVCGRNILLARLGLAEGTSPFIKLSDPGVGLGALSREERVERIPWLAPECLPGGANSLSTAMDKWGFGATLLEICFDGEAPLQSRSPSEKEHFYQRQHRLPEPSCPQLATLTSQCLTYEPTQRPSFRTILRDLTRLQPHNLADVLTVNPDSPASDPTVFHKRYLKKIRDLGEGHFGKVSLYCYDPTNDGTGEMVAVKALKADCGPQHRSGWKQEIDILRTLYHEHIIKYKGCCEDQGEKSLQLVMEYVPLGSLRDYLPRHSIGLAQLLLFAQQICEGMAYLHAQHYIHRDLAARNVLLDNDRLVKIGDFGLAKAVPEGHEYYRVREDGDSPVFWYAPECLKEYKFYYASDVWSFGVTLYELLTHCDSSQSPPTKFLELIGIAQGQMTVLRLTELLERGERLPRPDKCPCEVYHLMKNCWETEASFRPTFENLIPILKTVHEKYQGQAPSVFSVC
smiles,measurement,setting,value
COc1cc(OC)c(Cl)c(-c2ccc3c(NC(=O)c4ccc(N5CCNC(C)(C)C5)cc4)n[nH]c3n2)c1Cl [3D185],inhibition at 0.01 µM,SGK(h); 10 nM,-4%
same,inhibition at 0.1 µM,SGK(h); 100 nM,-13%
same,inhibition at 1 µM,SGK(h); 1000 nM,-7%
same,inhibition at 0.01 µM,DYRK1B(h); 10 nM,12%
same,inhibition at 0.1 µM,DYRK1B(h); 100 nM,3%
same,inhibition at 1 µM,DYRK1B(h); 1000 nM,3%
same,inhibition at 0.01 µM,HPK1(h); 10 nM,17%
same,inhibition at 0.1 µM,HPK1(h); 100 nM,65%
same,inhibition at 1 µM,HPK1(h); 1000 nM,94%
same,inhibition at 0.01 µM,Tie2(R849W)(h); 10 nM,-6%
same,inhibition at 0.1 µM,Tie2(R849W)(h); 100 nM,39%
same,inhibition at 1 µM,Tie2(R849W)(h); 1000 nM,86%
same,inhibition at 0.01 µM,MSK2(h); 10 nM,10%
same,inhibition at 0.1 µM,MSK2(h); 100 nM,25%
same,inhibition at 1 µM,MSK2(h); 1000 nM,49%
same,inhibition at 0.01 µM,DDR1(h); 10 nM,6%
same,inhibition at 0.1 µM,DDR1(h); 100 nM,27%
same,inhibition at 1 µM,DDR1(h); 1000 nM,64%
same,inhibition at 0.01 µM,PAK2(h); 10 nM,5%
same,inhibition at 0.1 µM,PAK2(h); 100 nM,-5%
same,inhibition at 1 µM,PAK2(h); 1000 nM,-5%
same,inhibition at 0.01 µM,ALK4(h); 10 nM,-4%
same,inhibition at 0.1 µM,ALK4(h); 100 nM,-7%
same,inhibition at 1 µM,ALK4(h); 1000 nM,5%
same,inhibition at 0.01 µM,TYK2(h); 10 nM,1%
same,inhibition at 0.1 µM,TYK2(h); 100 nM,14%
same,inhibition at 1 µM,TYK2(h); 1000 nM,67%
same,inhibition at 0.01 µM,DRAK2(h); 10 nM,-5%
same,inhibition at 0.1 µM,DRAK2(h); 100 nM,-13%
same,inhibition at 1 µM,DRAK2(h); 1000 nM,3%
same,inhibition at 0.01 µM,BRK(h); 10 nM,-5%
same,inhibition at 0.1 µM,BRK(h); 100 nM,7%
same,inhibition at 1 µM,BRK(h); 1000 nM,46%
